# Test system: NIH3T3 stably expressing the KFERQ-PS-Dendra
# Assay: CMA activity, KFERQ-PS-Dendra fluorescent reporter in NIH3T3 mouse fibroblasts
# Format: cell-based
# Design: CMA activity (Fig. 1d), MEAN / CMA activity (Fig. 1e-g), mean / CMA activity (Fig. 1d), individual experiments / CMA activity, mean (Fig. S2c, second panel) / CMA activity, mean (Fig. S2c, first panel) / CMA activity, mean (Fig. S2c, third panel): unit not given here
# Settings: for CMA activity (Fig. 1e-g), mean: n = 4; for CMA activity, mean (Fig. S2c, first panel) / CMA activity, mean (Fig. S2c, second panel) / CMA activity, mean (Fig. S2c, third panel): compound and cell type of panel not shown
# Experimental: Cells were transduced with lentivirus carrying the KFERQ-PS-Dendra reporter as before. Cells were photoactivated by exposure to a 3.5 mA (current constant) light emitting diode (LED: Norlux, 405 nm) for 3 min and then plated in glass-bottom 96 well plates. At the desired times, cells were fixed with 4% PFA and imaged using high-content microscopy (Operetta system, Perkin Elmer). Images were quantified using the manufacturer’s software in a minimum of 1,200 cells in 9 independent fields per well. […] This was particularly important in the case of primary human cells where the efficiency of transduction was ~65%. To avoid confounding effects for drug-induced changes in cell volume or adherence to the plate that could bring a fraction of the cells per field outside of focus, we set a threshold to count only […] that have at least 1/10 of the average number of […] detected in the untreated wells for each cell type (3–4 puncta/cell in the case of NIH3T3 and N2a cells and 5 puncta/cell in primary human fibroblasts).
# [1] = concentration 10 (unit not given)
# [2] = concentration 15 (unit not given)
# [3] = concentration 20 (unit not given)
# [4] = concentration 25 (unit not given)
# [5] = concentration 30 (unit not given)
# [6] = concentration 40 (unit not given)
# [7] = concentration 50 (unit not given)
compound,measurement,setting,value
Clc1ccc2c(c1)OCC(c1ccc(-c3ccccc3)cc1)=N2 [CA39],"CMA activity (Fig. 1e-g), mean","12h, concentration 20",22.9828
same,"CMA activity (Fig. 1e-g), mean","12h, concentration 30",30.7253
same,"CMA activity (Fig. 1e-g), mean","12h, concentration 40",33.0782
same,"CMA activity (Fig. 1e-g), mean","12h, concentration 50",21.8692
same,"CMA activity (Fig. 1e-g), mean","24h, concentration 0.02",3.576
same,"CMA activity (Fig. 1e-g), mean","24h, concentration 0.2",3.419
same,"CMA activity (Fig. 1e-g), mean","24h, concentration 2",5.488
same,"CMA activity (Fig. 1e-g), mean","24h, concentration 5",11.6083
same,"CMA activity (Fig. 1e-g), mean","24h, concentration 10",17.8717
same,"CMA activity (Fig. 1e-g), mean","24h, concentration 20",34.1318
same,"CMA activity (Fig. 1e-g), mean","24h, concentration 30",35.2802
same,"CMA activity (Fig. 1e-g), mean","24h, concentration 40",50.2311
same,"CMA activity (Fig. 1e-g), mean","24h, concentration 50",60.1885
same,"CMA activity (Fig. 1h-j), mean, untreated (0) = 1","concentration 0.2, 12+12w (12 h, then 12 h after washing out)",1.104
same,"CMA activity (Fig. 1h-j), mean, untreated (0) = 1","concentration 0.2, 12h",0.9726
same,"CMA activity (Fig. 1h-j), mean, untreated (0) = 1","concentration 0.2, 24h",1.209
same,"CMA activity (Fig. 1h-j), mean, untreated (0) = 1","concentration 2, 12+12w",1.202
same,"CMA activity (Fig. 1h-j), mean, untreated (0) = 1","concentration 2, 12h",0.9735
same,"CMA activity (Fig. 1h-j), mean, untreated (0) = 1","concentration 2, 24h",1.941
same,"CMA activity (Fig. 1h-j), mean, untreated (0) = 1","concentration 5, 12+12w",1.546
same,"CMA activity (Fig. 1h-j), mean, untreated (0) = 1","concentration 5, 12h",2.277
same,"CMA activity (Fig. 1h-j), mean, untreated (0) = 1","concentration 5, 24h",4.106
same,"CMA activity, mean (Fig. S2c, first panel)",[1],74.2616
same,"CMA activity, mean (Fig. S2c, second panel)",[1],29.9019
same,"CMA activity, mean (Fig. S2c, third panel)",[1],74.2616
same,"CMA activity (Fig. 1h-j), mean, untreated (0) = 1","concentration 10, 12+12w",2.775
same,"CMA activity (Fig. 1h-j), mean, untreated (0) = 1","concentration 10, 12h",2.902
same,"CMA activity (Fig. 1h-j), mean, untreated (0) = 1","concentration 10, 24h",6.322
same,"CMA activity, mean (Fig. S2c, first panel)",[2],68.2986
same,"CMA activity, mean (Fig. S2c, second panel)",[2],41.4399
same,"CMA activity, mean (Fig. S2c, third panel)",[2],68.2986
same,"CMA activity, mean (Fig. S2c, first panel)",[3],74.8347
same,"CMA activity, mean (Fig. S2c, second panel)",[3],54.0516
same,"CMA activity, mean (Fig. S2c, third panel)",[3],74.8347
same,"CMA activity (Fig. 1h-j), mean, untreated (0) = 1","concentration 20, 12+12w",4.843
same,"CMA activity (Fig. 1h-j), mean, untreated (0) = 1","concentration 20, 12h",6.406
same,"CMA activity (Fig. 1h-j), mean, untreated (0) = 1","concentration 20, 24h",12.0736
same,"CMA activity, mean (Fig. S2c, first panel)",[4],71.1281
same,"CMA activity, mean (Fig. S2c, second panel)",[4],57.8636
same,"CMA activity, mean (Fig. S2c, third panel)",[4],71.1281
same,"CMA activity, mean (Fig. S2c, first panel)",[5],76.3164
same,"CMA activity, mean (Fig. S2c, second panel)",[5],40.4368
same,"CMA activity, mean (Fig. S2c, third panel)",[5],76.3164
same,"CMA activity (Fig. 1h-j), mean, untreated (0) = 1","concentration 30, 12+12w",9.0956
same,"CMA activity (Fig. 1h-j), mean, untreated (0) = 1","concentration 30, 12h",8.564
same,"CMA activity (Fig. 1h-j), mean, untreated (0) = 1","concentration 30, 24h",12.4798
same,"CMA activity, mean (Fig. S2c, first panel)",[6],78.3071
same,"CMA activity, mean (Fig. S2c, second panel)",[6],58.9165
same,"CMA activity, mean (Fig. S2c, third panel)",[6],78.3071
same,"CMA activity, mean (Fig. S2c, first panel)",[7],53.1619
same,"CMA activity, mean (Fig. S2c, second panel)",[7],68.5848
same,"CMA activity, mean (Fig. S2c, third panel)",[7],53.1619
same,CMA activation compared with AR7,"fluorescent CMA reporter in mouse fibroblasts, basal and inducible CMA",> 40 % CMA of AR7
same,toxicity in cells,mouse fibroblasts,without noticeable toxicity
